From US20250034088A1, “LIPIDS AND USES THEREOF” (TAIWAN BIO-MANUFACTURING CORPORATION, priority 2023, published 2025) come the findings set out here.

The structures appear in SMILES notation.

A short description of data set [1]: mRNA encapsulation efficiency by RiboGreen assay. The format is physicochemical. The settings on record: FLuc mRNA-loaded LNP made with the lipid; for Encap)-sulation (%: Table 1. Here is the method:
(§1) The Firefly luciferase (FLuc) reporter mRNA-loaded lipid nanoparticles (LNPs) were formulated by NANOASSEMBLR® IGNITE™. Briefly, the lipid, cholesterol, 1,2-dimyristoyl-rac-glycero-3-methoxypolyethylene glycol-2000 (DMG-PEG2000), and […] (DSPC) mixture was prepared in ethanolic solution at the % mole ratio of […]. Three units of FLuc mRNA was dissolved in 25 mM sodium acetate pH 5.0 buffer and one unit of lipid mixture were rapidly combined in the microfluidic mixing cartridge at an amine-to-phosphate (N/P) ratio constant at 6, and the instrument flow rate set at 12 mL/min. The mRNA-LNPs performed a 40-fold dilution of calcium and magnesium-free phosphate-buffered saline (PBS) to reach pH neutral. Then, LNPs were concentrated using Amicon® Ultra-15 Centrifugal Filter Unit.
(§2) The mRNA-LNPs were characterized in terms of hydrodynamic size (z-average diameter), zeta potential, and polydispersity index by ZETASIZER™ PRO BLUE (MALVERN PANALYTICAL®). A QUANT-IT™ RIBOGREEN assay kit (THERMOFISHER®) was conducted to identify the mRNA concentration and encapsulation efficiency. In brief, mRNA-LNPs were diluted in equal volumes of Tris/EDTA (TE) buffer or 2% Triton X-100 in TE buffer. After that, a RIBOGREEN reagent was added to each sample and incubated at 37° C. in absence of light for 15 min. The fluorescence intensity (Ex/Em 480/520 nm) was detected on a TECAN™ Microplate reader. The encapsulation efficiency (E.E) can be calculated by the formula:
E.E(%)=(Total mRNA concentration−Unencapsulated mRNA concentration)/(Total mRNA concentration)×100%

A short description of data set [2]: LNP hydrodynamic size, polydispersity index and zeta potential by Zetasizer. The format is physicochemical. The settings on record: FLuc mRNA-loaded LNP. The procedure: as §1
as §2, with “formula: […]” for “formula:”

The subject of data set [3] is HEPG2 cells. As to the kind of experiment: Transfection efficiency of FLuc mRNA-LNPs in HEPG2 cells (luminescence). The format is cell-based. The settings on record: 18 hours. The procedure: (§3) To investigate the potential and cytotoxicity of mRNA-LNP made from novel lipids, FLuc mRNA (TRILINK®) was encapsulated into LNPs and transfected to the cell line. HEPG2 cells were maintained at 37° C. under 5% CO2 in a DMEM medium with 10% fetal bovine serum. Cells were seeded at 4×10^4 cells/well and treated with FLuc mRNA-LNPs for 18 hours while cell confluency reach 70%. To explore transfection efficiency, HEPG2 cells were treated with D-luciferin and mixed thoroughly for another incubation of 5 min at 37° C. The luminescence intensity was recorded using M200 Microplate Reader (TECAN®). Cell viability was evaluated by Cell Counting Kit-8 (SIGMA-ALDRICH®) and the absorbance was measured at 450 nm.

Data set [4] has as its system HEPG2 cells. Nature of the data set: Cytotoxicity in HEPG2 cells (Cell Counting Kit-8). It is filed as cell-based. Particulars: FLuc mRNA-LNPs, 18 hours. Here is the method: as §3
(Tetrazolium assays rely on reduction of a dye to a coloured formazan, in cell work by metabolically active cells.)

`CCCCCCCCC(CCCCCCCC)OC(=O)CCO[C@H]1CN(CCO)C[C@H]1OCCC(=O)OC(CCCCCCCC)CCCCCCCC` [Compound 1, di(heptadecan-9-yl)3,3′-(((3R,4S)-1-(2-hydroxyethyl)pyrrolidine-3,4-diyl)bis(oxy))dipropionate]: in data set [1], the “Encap)-sulation (%” value was determined as 98.5%. Moreover, in data set [2] (Table 1), the “LNP zeta potential (mV)” value is −7.06 mV and the PDI is 0.026. The “LNP size (nm)” value in data set [2] (z-average diameter, Table 1) amounted to 73.80 nm.
Turning to `CCCCCCCCC(CCCCCCCC)OC(=O)CCO[C@H]1CN(CCCO)C[C@H]1OCCC(=O)OC(CCCCCCCC)CCCCCCCC` [Compound 2], in data set [1], the “Encap)-sulation (%” value is on record as 98.1%. In data set [2] (Table 1), the “LNP zeta potential (mV)” value was −5.73 mV and the PDI is 0.033. The “LNP size (nm)” value in data set [2] (z-average diameter, Table 1) stood at 74.65 nm.
As to `CCCCCCCCC(CCCCCCCC)OC(=O)CCCCO[C@H]1CN(CCCO)C[C@H]1OCCCCC(=O)OC(CCCCCCCC)CCCCCCCC` [Compound 3, di(heptadecan-9-yl)5,5′-(((3S,4R)-1-(3-hydroxypropyl)pyrrolidine-3,4-diyl)bis(oxy))dipentanoate], the “Encap)-sulation (%” value in data set [1] came to 97.92%. Further, in data set [2] (Table 1), the “LNP zeta potential (mV)” value is listed as 6.98 mV and the PDI is given as 0.016. Further, the “LNP size (nm)” value in data set [2] (z-average diameter, Table 1) was 98.84 nm.
For the molecule `CCCCCCCCC(CCCCCCCC)OC(=O)CCCCO[C@H]1CN(CCO)C[C@H]1OCCCCC(=O)OC(CCCCCCCC)CCCCCCCC` [Compound 4, di(heptadecan-9-yl)5,5′-(((3S,4R)-1-(2-hydroxyethyl)pyrrolidine-3,4-diyl)bis(oxy))dipentanoate], the “Encap)-sulation (%” value in data set [1] worked out at 98.43%. Further, in data set [2] (Table 1), the “LNP zeta potential (mV)” value was determined as 1.03 mV and the PDI stood at 0.015. In data set [2] (z-average diameter, Table 1), the “LNP size (nm)” value was 79.20 nm.
For `CCCCCCCCC(CCCCCCCC)OC(=O)CCO[C@H]1CN(CCCCO)C[C@H]1OCCC(=O)OC(CCCCCCCC)CCCCCCCC` [Compound 7, di(heptadecan-9-yl)3,3′-(((3R,4S)-1-(4-hydroxybutyl)pyrrolidine-3,4-diyl)bis(oxy))dipropionate], the “Encap)-sulation (%” value in data set [1] amounted to 97.22%. In addition, in data set [2] (Table 1), the “LNP zeta potential (mV)” value amounted to 2.41 mV and the PDI turned out to be 0.025. In addition, the “LNP size (nm)” value in data set [2] (z-average diameter, Table 1) is 87.10 nm.
`CCCCCCCCC(CCCCCCCC)OC(=O)CCCCCO[C@H]1CN(CCCO)C[C@H]1OCCCCCC(=O)OC(CCCCCCCC)CCCCCCCC` [Compound 11, di(heptadecan-9-yl)6,6′-(((3R,4S)-1-(3-hydroxypropyl)pyrrolidine-3,4-diyl)bis(oxy))dihexanoate]: the “Encap)-sulation (%” value in data set [1] came to 97.58%. Besides, in data set [1] (Table 2), the “Encapsulation (%)” value is given as 97.58%. Further, in data set [2] (Table 1), the “LNP zeta potential (mV)” value came out at 10.95 mV and the PDI was found to be 0.014. Further, in data set [2] (Table 2), the “LNP size (nm)” value worked out at 80.71 nm, the “LNP zeta potential (mV)” value stood at 10.95 mV and the PDI came out at 0.014. Further, the “LNP size (nm)” value in data set [2] (z-average diameter, Table 1) is on record as 80.71 nm. The “Transfection efficiency (relative to SM-102, %)” value in the data set with HEPG2 cells [3] is 100%. The “Cytotoxicity in HEPG2” value with HEPG2 cells [4] was “— (The toxicity of compounds 11 and 14 is less than 10%)”.
For the molecule `CCCCCCCCC(CCCCCCCC)OC(=O)CCCCCO[C@H]1CN(CCCCCO)C[C@H]1OCCCCCC(=O)OC(CCCCCCCC)CCCCCCCC` [Compound 12, di(heptadecan-9-yl)6,6′-(((3R,4S)-1-(5-hydroxypentyl)pyrrolidine-3,4-diyl)bis(oxy))dihexanoate], the “Encap)-sulation (%” value in data set [1] turned out to be 96.99%. Moreover, in data set [2] (Table 1), the “LNP zeta potential (mV)” value was determined as 7.83 mV and the PDI is listed as 0.039. Further, in data set [2] (z-average diameter, Table 1), the “LNP size (nm)” value was determined as 78.35 nm.
Regarding `CCCCCCCCC(CCCCCCCC)OC(=O)CCCCCO[C@H]1CN(CCCCO)C[C@H]1OCCCCCC(=O)OC(CCCCCCCC)CCCCCCCC` [Compound 13, di(heptadecan-9-yl)6,6′-(((3R,4S)-1-(4-hydroxybutyl)pyrrolidine-3,4-diyl)bis(oxy))dihexanoate], the “Encap)-sulation (%” value in data set [1] stood at 97.39%. In addition, in data set [2] (Table 1), the “LNP zeta potential (mV)” value was 12.45 mV and the PDI turned out to be 0.046. For the same molecule, the “LNP size (nm)” value in data set [2] (z-average diameter, Table 1) is reported as 81.29 nm.
For the molecule `CCCCCCCCC(CCCCCC)C(=O)OCCCCCCO[C@H]1CN(CCCO)C[C@H]1OCCCCCCOC(=O)C(CCCCCC)CCCCCCCC` (stereo partly drawn) [Compound 14, (((3S,4R)-1-(3-hydroxypropyl)pyrrolidine-3,4-diyl)bis(oxy))bis(hexane-6,1-diyl)bis(hexyldecanoate)], the “Transfection efficiency (relative to SM-102, %)” value with HEPG2 cells [3] was 105%. In addition, the “Cytotoxicity in HEPG2” value in the data set with HEPG2 cells [4] is “— (The toxicity of compounds 11 and 14 is less than 10%)”.
Regarding `CCCCCCCCCCC(CCCCCCCC)COC(=O)CCCCO[C@H]1CN(CCCO)C[C@H]1OCCCCC(=O)OCC(CCCCCCCC)CCCCCCCCCC` (stereo partly drawn) [Compound 17, bis(2-octyldodecyl)5,5′-(((3R,4S)-1-(3-hydroxypropyl)pyrrolidine-3,4-diyl)bis(oxy))dipentanoate], in data set [1], the “Encap)-sulation (%” value came out at 98.16%. Also, in data set [2] (Table 1), the “LNP zeta potential (mV)” value was found to be 8.00 mV and the PDI came out at 0.03. The “LNP size (nm)” value in data set [2] (z-average diameter, Table 1) is 95.10 nm.
For `CCCCCCCCCCC(CCCCCCCC)COC(=O)CCCCO[C@H]1CN(CCCCCO)C[C@H]1OCCCCC(=O)OCC(CCCCCCCC)CCCCCCCCCC` (stereo partly drawn) [Compound 18, bis(2-octyldodecyl)5,5′-(((3R,4S)-1-(5-hydroxypentyl)pyrrolidine-3,4-diyl)bis(oxy))dipentanoate], in that order: 97.57%, 9.52 mV, 0.03 and 86.61 nm.
For the molecule `CCCCCCCCCCC(CCCCCCCC)COC(=O)CCCCO[C@H]1CN(CCCCCCO)C[C@H]1OCCCCC(=O)OCC(CCCCCCCC)CCCCCCCCCC` (stereo partly drawn) [Compound 19, bis(2-octyldodecyl)5,5′-(((3R,4S)-1-(6-hydroxyhexyl)pyrrolidine-3,4-diyl)bis(oxy))dipentanoate], the “Encap)-sulation (%” value in data set [1] amounted to 97.31%. In data set [2] (Table 1), the “LNP zeta potential (mV)” value is 6.25 mV and the PDI is listed as 0.05. The “LNP size (nm)” value in data set [2] (z-average diameter, Table 1) turned out to be 79.74 nm.
For `CCCCCCC(CCCC)COC(=O)CCCCO[C@H]1CN(CCCO)C[C@H]1OCCCCC(=O)OCC(CCCC)CCCCCC` (stereo partly drawn) [Compound 20, bis(2-butyloctyl) 5,5′-(((3R,4S)-1-(3-hydroxypropyl)pyrrolidine-3,4-diyl)bis(oxy))dipentanoate], the “Encap)-sulation (%” value in data set [1] came out at 97.36%. Moreover, in data set [2] (Table 1), the “LNP zeta potential (mV)” value was determined as 15.00 mV and the PDI is 0.06. Besides, the “LNP size (nm)” value in data set [2] (z-average diameter, Table 1) was 88.33 nm.
On to `CCCCCCC(CCCC)COC(=O)CCCCO[C@H]1CN(CCCCCO)C[C@H]1OCCCCC(=O)OCC(CCCC)CCCCCC` (stereo partly drawn) [Compound 21, bis(2-butyloctyl) 5,5′-(((3R,4S)-1-(5-hydroxypentyl)pyrrolidine-3,4-diyl)bis(oxy))dipentanoate], for which the “Encap)-sulation (%” value in data set [1] is on record as 98.87%. Also, in data set [2] (Table 1), the “LNP zeta potential (mV)” value came to 14.91 mV and the PDI is reported as 0.0532. Besides, in data set [2] (z-average diameter, Table 1), the “LNP size (nm)” value is 93.39 nm.
On to `CCCCCCC(CCCC)COC(=O)CCCCO[C@H]1CN(CCCCCCO)C[C@H]1OCCCCC(=O)OCC(CCCC)CCCCCC` (stereo partly drawn) [Compound 22, bis(2-butyloctyl) 5,5′-(((3R,4S)-1-(6-hydroxyhexyl)pyrrolidine-3,4-diyl)bis(oxy))dipentanoate], for which the “Encap)-sulation (%” value in data set [1] stood at 98.18%. For the same molecule, in data set [2] (Table 1), the “LNP zeta potential (mV)” value is 10.78 mV and the PDI was 0.05. Further, the “LNP size (nm)” value in data set [2] (z-average diameter, Table 1) is reported as 148.20 nm.
